Data as given in paper PMC7557402, “Evaluation of Nucleoside Analogs as Antimicrobials Targeting Unique Enzymes in Borrelia burgdorferi” (Pathogens, 2020).
pIC50, pKi: −log10 of the molar value. Values joined by “and” are separate entries in the source; they are usually repeats but may differ in a detail not shown here. Identical values can stand only once. Like-named read-outs stand apart in the source and are kept apart here.

Assays:
B. burgdorferi N40 [1] = experiment: Subculture without inhibitor after 7 days of treatment: bacteriostatic versus bactericidal; assay type: cell-based, Borrelia burgdorferi; conditions: for Inhibitor Activity: 7 days of treatment, then subculture
Protocol: After 7 days of treatment, a 5 µL aliquot from each treatment tube (and untreated control) was added to 1 mL of BSKII-RS medium to allow any remaining viable spirochetes in the sample to grow. After incubation for 7–21 days at 33 °C, the survival of the spirochetes was determined using dark-field microscopy to observe motility and by employing bioluminescence measurements to assess vitality of the recovered culture.
To further differentiate between bacteriostatic versus bactericidal activities of MTAN inhibitors, we subcultured drug treated spirochetes in the absence of inhibitors to recover any live B. burgdorferi remaining after seven days of inhibitor treatment (summarized in Table 4). If non-motile spirochetes from treated cultures were able to grow back, the inhibitor was determined to have a bacteriostatic effect at the selected concentration. […] Spirochete survival was determined by both dark-field microscopy and bioluminescence measurements. Microscopic examination allowed assessment of motility of the spirochetes whereas bioluminescence assays assessed recovery and viability of B. burgdorferi cells. […] By comparison, a reduction in bioluminescence compared to the untreated control was observed after treatment with dEt-ImmA at a 0.4 µM or greater concentration. […] After seven days of treatment, live spirochetes were only recovered when concentrations of ≤0.4 µM were used for dEt-ImmA and IADO.

[2] = system: Borrelia MTANs (Bgp, MtnN, Pfs); experiment: MTAN activity/kinetics, across the nucleosidases; assay type: biochemical
Protocol: (§1) Enzyme specific activities were determined using previously reported optimal pH conditions (50 mM sodium phosphate, pH = 7, for Bgp, MtnN; 50 mM sodium phosphate-citrate, pH = 5, for Pfs) and a spectrophotometric activity assay that measures the decrease in UV absorbance at 275 nm that occurs when MTA is cleaved to 5-methylthioribose and adenine (ε275 = 1.6 mM^−1cm^−1). The extinction coefficients for cleavage of other nucleosides were experimentally validated and found to be the same for MSeA, FSBA, and IADO (ε275 = 1.6 mM^−1cm^−1). Due to the added UV absorbance imparted by the 5′ purine group found in PurTA, the enzyme reactions were followed spectrophotometrically at 260 nm using the experimentally determined extinction coefficient of ε260 = 5.6 mM^−1cm^−1. Enzyme specific activities for MTA were generally 1–2 U/mg (1 U = µmol MTA hydrolyzed/min). The enzyme specific activities for other nucleosides were determined and reported in U/mg and as the % max specific activity (relative to MTA at 100%).
(§2) Kinetic constants have been previously reported for MTA [18]. As MSeA was also an efficient substrate for the B. burgdorferi nucleosidases, kinetic constants were determined using the activity assay described above, varying the nucleoside concentrations from 1 to 20 µM, and fitting the data on substrate-velocity plots to the Michaelis–Menten equation using GraphPad Prism (version 6):(1) Vo=Vmax[S]/Km+[S]
For the other compounds, inhibition constants (Ki’s) were determined as previously described, using an MTA concentration of 100 µM and varying the inhibitor concentration from 0 to 100 µM. The inhibited velocity (Vo’) and uninhibited velocity (Vo) values were determined, and the ratio of Vo’/Vo plotted as a function of inhibitor concentration. Ki values were calculated from these plots by fitting the data to the equation for competitive inhibition using GraphPad Prism:(2) Vo^′/Vo=Km+[S]/Km+[S]+(Km[I]/Ki)

E. coli MTAN = system: E. coli MTAN; design: method as in PMID 8941345; conditions: radioactive enzyme assay; cited from earlier work
Bgp [3] = target: T1, Bgp (Borreliella burgdorferi, UniProt Q9F952); experiment: MTAN spectrophotometric activity assay (specific activity, Km); assay type: biochemical, Borrelia burgdorferi; conditions: for Specific Activity: pH 7, 1 U = 1 µmol MTA hydrolyzed per minute; for % Max Specific Activity: relative to MTA as a substrate
T1 sequence (Q9F952 entry or part of it): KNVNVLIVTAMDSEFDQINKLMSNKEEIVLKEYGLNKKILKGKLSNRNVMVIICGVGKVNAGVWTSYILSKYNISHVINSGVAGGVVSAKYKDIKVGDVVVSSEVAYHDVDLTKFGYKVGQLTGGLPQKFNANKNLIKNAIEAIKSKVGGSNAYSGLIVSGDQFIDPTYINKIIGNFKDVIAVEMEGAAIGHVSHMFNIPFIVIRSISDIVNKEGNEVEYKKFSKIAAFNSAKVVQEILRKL
Protocol: (§3) Recombinant MTANs were expressed and purified as previously described. Briefly, overnight 10 mL cultures of recombinant E. coli BL21(DE3) pLysS cells containing engineered pET30a expression plasmids for Bgp, MtnN or Pfs were grown at 37 °C with shaking (150 rpm) in LB broth supplemented with 50 µg/mL kanamycin and 0.5% glucose. The culture was diluted 1:50 in fresh medium and incubated at 37 °C with shaking (150 rpm) until the absorbance (600 nm) reached 0.4–0.6. Protein expression was induced with the addition of isopropyl β-D-1-thiogalactopyranoside (IPTG) to a final concentration of 1 mM and continued overnight incubation with shaking at 30 °C. Cells were harvested by centrifugation (10,000× g/15 min), and the pellet was washed once with ice-cold lysis buffer (50 mM sodium phosphate, pH = 8.0, 300 mM NaCl, 10 mM imidazole, 2mM β mercaptoethanol). Harvested cell pellets were resuspended in 10 mL fresh lysis buffer and lysed by sonication on ice using a Misonix Sonicator 300 (power setting 7, pulse 30 s, 1 min cooling with total sonication for 2.5 min). The cell lysates were centrifuged at 10,000× g for 15 min at 4 °C to remove debris, and the lysate was further filtered through a […] syringe filter to obtain a clear extract. Recombinant N-terminal hexahistidine tagged proteins were purified from the lysate using HisPur™ affinity columns (Thermo Scientific) according to the manufacturer’s specifications, and specifically eluted with 250 mM imidazole containing buffer (pH = 7). Eluted materials were analyzed by SDS-PAGE and Coomassie blue staining and found to be >95% homogeneous. Enzyme concentrations were determined using UV scans on a Cary100 spectrophotometer (Agilent) to determine the absorbance at 280 nm and applying extinction coefficients (0.1%) of 0.594 (Bgp), 0.637 (MtnN), and 0.404 (Pfs). Enzyme stocks (1 mg/mL) were prepared in 20% glycerol and stored at −80 °C.
as §1, §2

Pfs [4] = target: T2, Pfs (Borreliella burgdorferi, UniProt O50162); experiment: as above; assay type: biochemical, Borrelia burgdorferi; conditions: for Specific Activity: pH 5, 1 U = 1 µmol MTA hydrolyzed per minute; for % Max Specific Activity: relative to MTA as a substrate
T2 sequence (O50162 entry or part of it): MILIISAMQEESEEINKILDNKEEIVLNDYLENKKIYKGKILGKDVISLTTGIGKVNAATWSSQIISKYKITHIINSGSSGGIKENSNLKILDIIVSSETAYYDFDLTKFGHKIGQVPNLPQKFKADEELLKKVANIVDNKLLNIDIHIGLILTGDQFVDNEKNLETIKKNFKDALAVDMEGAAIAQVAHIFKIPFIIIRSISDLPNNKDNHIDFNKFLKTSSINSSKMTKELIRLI
Protocol: as §3, §1, §2

MtnN [5] = target: T3, MtnN (Borreliella burgdorferi, UniProt O50860); experiment: as above; assay type: biochemical, Borrelia burgdorferi; conditions: for Specific Activity: pH 7, 1 U = 1 µmol MTA hydrolyzed per minute; for % Max Specific Activity: relative to MTA as a substrate
T3 sequence (O50860 entry or part of it): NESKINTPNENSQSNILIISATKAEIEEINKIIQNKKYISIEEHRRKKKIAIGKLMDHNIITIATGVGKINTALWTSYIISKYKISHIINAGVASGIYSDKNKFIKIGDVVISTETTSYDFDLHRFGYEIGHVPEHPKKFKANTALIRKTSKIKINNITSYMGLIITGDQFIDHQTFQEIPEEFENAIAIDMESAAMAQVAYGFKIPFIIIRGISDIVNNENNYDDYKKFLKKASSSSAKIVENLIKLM
Protocol: as §3, §1, §2

MtnN [6] = target: T3, MtnN; conditions: reported previously, ref Cornell et al., 2020 [18], read-out: Km (Michaelis constant); cited from earlier work
Pfs [7] = target: T2, Pfs; conditions: reported previously, ref Cornell et al., 2020 [18], read-out: Km (Michaelis constant); cited from earlier work
Bgp [8] = target: T1, Bgp; design: method as in Cornell et al., 2020 [18]; conditions: reported previously, ref Cornell et al., 2020 [18], read-out: Km (Michaelis constant); cited from earlier work
B. burgdorferi N40 [9] = experiment: Dark-field microscopy of treated cultures (motility); assay type: cell-based, Borrelia burgdorferi; conditions: 24 h treatment
Protocol: The infectious N40 B. burgdorferi culture was treated with ten 2-fold serial dilutions of ampicillin overnight. Stocks of ampicillin at 200 µg/mL to 0.385 µg/mL concentrations were used to prepare different dilutions for treatment (final 10 to 0.0195 µg/well). The bioluminescence standard curve (Figure 3) was used to calculate the percentage of physiologically compromised B. burgdorferi after treatment with different ampicillin concentration for 24 h. Ampicillin treatment affected the viability of the spirochetes (Figure 4A). […] A prolonged incubation could increase killing by ampicillin at lower doses of drug. In addition to bioluminescence, the cultures were also observed under dark-field microscopy to examine viability.

[10] = system: B. burgdorferi strain N40; experiment: microbe, parasite or virus in culture; assay type: cell-based, Borrelia burgdorferi; conditions: 24 h treatment; calculated from graphs
Protocol: B. burgdorferi N40 strain carrying a firefly luciferase gene (Bbluc), which is a derivative of the N40D10/E9 clone, was used in this study and is labeled as N40 throughout. N40 was cultured at 33 °C in Barbour-Stoenner-Kelly-II (BSK-II) medium supplemented with 6% rabbit serum (BSKII-RS). Bacterial counts were determined under 400× magnification using a hemocytometer and a dark field microscope.
The luciferase expressing B. burgdorferi N40 strain was grown to a density of ~10^8 spirochetes/mL and divided into two aliquots. One aliquot was incubated at 60 °C for 30 min to kill the spirochetes. […] The culture was mixed with the substrate by shaking in the dark, incubated at 37 °C for 5 min in a Spectramax M2 microplate reader (Molecular Devices, San Jose, CA, USA) and the bioluminescence measured. […]
Nucleosides and nucleoside analogs were prepared as sterile 1 mM stock solutions in distilled water (MSeA, IADO, FSBA, and dEt-ImmA) or in DMSO (PurTA). […] Photon emission due to luciferase activity was measured at three time points, after: (a) 24 h, (b) 72 h, and (c) 7 days of treatments to observe the effect of inhibitors on B. burgdorferi culture. At the end of each time point, bioluminescence was measured as described above. […]

MtnN [11] = target: T3, MtnN; design: method as in Cornell et al., 2020 [18]; conditions: reported previously, ref Cornell et al., 2020 [18], cited from earlier work
Bgp [12] = target: T1, Bgp; design: method as in Cornell et al., 2020 [18]; conditions: reported previously, ref Cornell et al., 2020 [18], cited from earlier work
Pfs [13] = target: T2, Pfs; design: method as in Cornell et al., 2020 [18]; conditions: reported previously, ref Cornell et al., 2020 [18], cited from earlier work
[14] = nucleoside 1 to 20 µM, read-out: Km (Michaelis constant)
[15] = read-out: Ki (inhibition constant)

With “5′-deoxy-5′-methylselenoadenosine [MSeA]” the “Inhibitor Activity” value (B. burgdorferi N40 [1]; Dose: All doses (0.0032–10 µM)) was “Bacteriostatic”, the “recovery of spirochetes (bioluminescence comparable with untreated controls)” value (B. burgdorferi N40 [1]; all concentrations, 12 days of incubation of subcultured bacteria) was “fully recovered” and the “specific activities higher than MTA” value ([2]; Bgp and MtnN) was 50–79%. For the same compound, the Km ([2]; range over all three nucleosidases) was 1.5 to 2.1 µM and 1.5 to 2 µM, the pIC50 (E. coli MTAN) was about 5.40 and the Km (Bgp [3]; [14]) was 1.62 µM. For the same compound, the “Specific Activity” value (Bgp [3]) was 1.79 U/mg, the “% Max Specific Activity” value (Bgp [3]) was 179% and the Km (Pfs [4]; [14]) was 2.12 µM. For the same compound, the “Specific Activity” value (Pfs [4]) was 0.27 U/mg, the “% Max Specific Activity” value (Pfs [4]) was 16% and the Km (MtnN [5]; [14]) was 1.5 µM. The “Specific Activity” value (MtnN [5]) was 1.50 U/mg and the “% Max Specific Activity” value (MtnN [5]) was 150%.
For “5′-deoxy-5′-methylthioadenosine [MTA, reference compound]”, the “Specific Activity” value (Bgp [3]) was 1.00 U/mg, the “% Max Specific Activity” value (Bgp [3]) was 100% and the “Specific Activity” value (Pfs [4]) was 1.70 U/mg. The “% Max Specific Activity” value (Pfs [4]) was 100%, the “Specific Activity” value (MtnN [5]) was 1.00 U/mg and the “% Max Specific Activity” value (MtnN [5]) was 100%. The Km (MtnN [6]) was 9.09 µM, the Km (Pfs [7]) was 0.61 µM and the Km (Bgp [8]) was 0.49 µM.
With `CC1(C)S[C@@H]2[C@H](NC(=O)[C@H](N)c3ccccc3)C(=O)N2[C@H]1C(=O)O` [ampicillin, reference compound] the “concentration at which majority of the spirochetes were non-motile with stripping of the outer membrane” value (B. burgdorferi N40 [9]) was at least 0.625 µg/well and the “IC50 (percent of physiologically compromised B. burgdorferi)” value [10] was ~ 0.31 µg/µL of culture.
For `CCC[C@H]1N[C@@H](c2c[nH]c3c(N)ncnc23)[C@H](O)[C@@H]1O` [dEt-ImmA, 5′-deoxy-5′-ethyl-immucillin A], the pKi (MtnN [11]; [15]) is given as 8.83, the “Ki’ (delayed onset inhibition constant)” value (MtnN [11]) is given as 0.58 ± 0.05 nM and the “recovery of live spirochetes” value (B. burgdorferi N40 [1]; 2 µM and 10 µM, 21 days of subculture in media lacking MTAN inhibitors) is given as “no live spirochetes were recovered”. The “Inhibitor Activity” value (B. burgdorferi N40 [1]; Dose: 2 µM, 10 µM) was “Bactericidal”, the “concentration giving a reduction in bioluminescence compared to the untreated control” value (B. burgdorferi N40 [1]; after 12 days of incubation of subcultured bacteria) was at least 0.4 µM and the “concentrations at which live spirochetes were recovered” value (B. burgdorferi N40 [1]; after seven days of treatment) was at most 0.4 µM. The “concentrations that exert bactericidal activity” value (B. burgdorferi N40 [1]; after seven days of treatment, bacteriostatic at lower concentrations) was at least 1 µM, the pKi (Bgp [12]; [15]) was 8.61 and the “Ki’ (delayed onset inhibition constant)” value (Bgp [12]) was 0.35 ± 0.02 nM. For the same compound, the pKi (Pfs [13]; [15]) was 7.98 and the “Ki’ (delayed onset inhibition constant)” value (Pfs [13]) was 0.53 ± 0.15 nM.
